{"source": "patent US20070087988A1", "about": "“Hematopoietic progenitor kinase 1 for modulation of an immune response” (New York University, priority 2005, published 2007)", "key": {"[1]": {"test_system": "T cells", "test": "Apoptosis of TCR-stimulated T cells, annexin V / 7AAD staining", "assay_type": "cell-based, mouse"}, "[2]": {"test_system": "HPK1", "test": "Western blot of immunoprecipitated HPK1 with anti-phosphorylated PKA substrate antibody", "assay_type": "cell-based, human", "details": "Jurkat T cells stimulated with PGE2 for 10 min", "protocol": "The primary sequence of HPK1 was examined for the preferred PKA phosphorylation site on HPK1. Within the activation loop of HPK1, there exists a perfect PKA phosphorylation site at serine 171 (FIG. 12A). This serine is conserved in all members of the KHS subfamily of STE20 kinases. To determine whether PKA can directly phosphorylate HPK1 upon stimulation by PGE2, experiments were conducted using an anti-phospho PKA substrate antibody that recognizes the arginine-based motif that is present at sites that are phosphorylated by PKA (FIG. 12A).\nIn these experiments, Jurkat T cells were stimulated with PGE2 for 10 min., lysed, and immunoprecipitated HPK1 was subjected to Western blot analysis using anti-phosphorylated PKA substrate antibody. […] Similarly, the antibody also recognized HPK1 immunoprecipitated from cells that were treated with anti-CD3 (FIG. 12B, lane 2)."}, "[3]": {"test_system": "murine HPK1", "test": "IVK assay of HA-tagged murine HPK1 (wild type and mutants) transfected into Jurkat cells", "assay_type": "cell-based, mouse", "details": "Jurkat transfectants", "from_the_text": "The pcDNA3 vector containing mouse cDNA encoding the HA-tagged wild type murine HPK1 and a proline-rich-deleted construct were constructed by Dr. F. Kiefer (Liu et al., 2000, J. Immunol. 165:1417). QuickChange™ mutagenesis system was used to alter the wild type HPK1 construct to encode the desired point mutations (Stratagene, La Jolla, Calif.). Mutated constructs were sequenced to verify the presence of the desired mutation and for the absence of PCR-generated mutations.\nJurkat T cells (1.5×10^7) were transfected as described in (Chang et al., 1998, Mol. Cell. Biol. 18:4986). Whole cell lysates derived from resting or stimulated transfectants were subjected to immunoprecipitations by the indicated antibodies, and were subjected to in vitro kinase reactions as described in (Kiefer et al., 1996, EMBO J. 15:7013 and (Sawasdikosol et al., 2003, Blood 101:3687). Anti-murine HPK1 #7 antibody was used to detect the ectopically expressed HPK wild type and mutant murine HPK1.\nTo assess the role of the proline-rich motifs in PGE2-induced HPK1 activation, cells were transfected with constructs that encoded either the HA-tagged wild type HPK1 or a mutant form in which the P1, P2, and P4 proline-rich motifs (HA-ΔP-HPK1) were deleted (FIG. 8A). Transfectants were left untreated, stimulated by 10 pM of PGE2, or stimulated by TCR crosslinking. The ectopically expressed HPK1 proteins were subjected to anti-HA immunoprecipitation and were subjected to IVK assay. […] This limits the possibility that adapter proteins play a role in this process.\nTo assess the importance of arginine 168, arginine 169 and serine 171 in PGE2-induced HPK1 activation, a panel of mutant HPK1 expression constructs that encode a point mutation at each of these amino acids was created. In these mutants, arginines were changed to lysines and serine was changed to alanine. These mutant HPK1 constructs were transfected into Jurkat cells and the ectopically expressed HA-tagged HPK1 were immunoprecipitated from resting or PGE2 stimulated cells."}, "[4]": {"test_system": "T cells", "test": "FACS of TCR-stimulated T cells: Foxp3 expression and side-scatter profile", "assay_type": "cell-based, mouse", "from_the_text": "This is due in part to the fact that HPK^−/− T cells produce more IL-2. However, other factors may play a role in the increased percentage of cells expressing CD25. To determine whether regulatory T cell (Treg) transcription factor, Foxp3, was a factor, the expression of […] in HPK^−/− cells was examined in this population. It has been shown that PGE2 induces the expression of Foxp3 in both human and mouse T cells. Because of the inhibitory nature of these T cell subsets, there was a question of whether the conditions of stimulation generated fewer Tregs in the HPK1^−/− culture, as this might explain the enhanced functionality of these T cells.\nHowever, a decrease was detected in the number of cells in the side-scatter profile of wild type T cells exposed to PGE2, indicating a decrease in cell viability. […] Indeed, when these cells were stained for annexin V to determine the amount of apoptosis, PGE2 did increase the number of wild type cells undergoing apoptosis by over 75%, compared to 47% in cells not treated with PGE2."}, "[5]": {"test_system": "T cells", "test": "IL-2 production by ELISA of T cell supernatants", "assay_type": "cell-based, mouse", "protocol": "Supernatants from the proliferation assay were collected for ELISA prior to addition of ^3H-thymidine. The protocol used for ELISA followed the instructions from BD Pharmingen.\nSupernatants from the proliferation assay were collected for ELISA prior to addition of ^3H thymidine. For profiling experiments, supernatants were collected as above, with variable time points. […] Cells were then washed with PBS, re-seeded in fresh medium and stimulated with 2 μg/ml plate bound anti-CD3 and 1 μg/ml soluble anti-CD28 for eight hours and supernatants were collected for analysis. Protocol used for ELISA follows BD Pharmingen instructions."}, "[6]": {"details": "Example 4, ELISA, addition of PGE2"}, "[7]": {"details": "Example 7, 3 day TCR stimulated cells, ELISA, 1 nM PGE2"}}, "data": [{"smiles": "CCCCC[C@H](O)/C=C/[C@H]1[C@H](O)CC(=O)[C@@H]1C/C=C\\CCCC(=O)O", "note": "[PGE2, prostaglandin E2]", "values": [{"measurement": "wild type cells undergoing apoptosis (annexin V)", "setting": "[1]; three days of TCR stimulation with PGE2, 47% in cells not treated with PGE2", "value": "over 75%"}, {"measurement": "rate of HPK1−/− T cell apoptosis", "setting": "[1]; three days of TCR stimulation, addition of PGE2", "value": "did not significantly increase"}, {"measurement": "recognition of HPK1 by anti-phosphorylated PKA substrate antibody", "setting": "[2]", "value": "recognized the phosphorylated HPK1"}, {"measurement": "kinase response of HA-HPK1 (wild type)", "setting": "[3]; 10 pM PGE2", "value": "responded competently"}, {"measurement": "kinase response of HPK1 proline-rich deleted mutant (HA-ΔP-HPK1)", "setting": "[3]; 10 pM PGE2", "value": "responded to PGE2 stimulation"}, {"measurement": "kinase response of HPK1 serine 171 to alanine mutant to PGE2", "setting": "[3]; PGE2 stimulated", "value": "ablated the response"}, {"measurement": "reduction of responsiveness to PGE2 stimulation, HPK1 arginine to lysine mutation at residue 168 or 169", "setting": "[3]; PGE2 stimulated", "value": "approximately 90%"}, {"measurement": "Foxp3 expression", "setting": "[4]; HPK+/+ or HPK−/− cells, TCR crosslinking 3 days, with versus without PGE2", "value": "did not induce a higher Foxp3 expression"}, {"measurement": "number of cells in the side-scatter profile (cell viability), wild type T cells", "setting": "[4]; exposed to PGE2", "value": "decrease"}, {"measurement": "pattern of side-scatter, HPK1−/− T cells", "setting": "[4]; with or without PGE2", "value": "no difference"}, {"measurement": "percentage of IL-2 inhibition, HPK1−/− T cells", "setting": "[5]; [6]", "value": "~30", "unit": "%"}, {"measurement": "percentage of IL-2 inhibition, wild type T cells", "setting": "[5]; [6]", "value": "~84", "unit": "%"}, {"measurement": "inhibition of IL-2 production, HPK1−/− T cells", "setting": "[5]; [7]", "value": "~26", "unit": "%"}, {"measurement": "inhibition of IL-2 production, wild type cells", "setting": "[5]; [7]", "value": "~88", "unit": "%"}]}]}
